In US6623769B1, “Administration of lycopene for combating skin/mucous membrane damage” (Societe L'Oreal S.A., priority 1999, dated 2003):

System: promoter of the gene for collagenase 1
Test: Inhibition of PMA-induced activity of the collagenase 1 promoter (CAT reporter, CAT-Elisa) in transfected HeLa cells
Assay type: cell-based
Conditions: conclusion in words from the Table, PMA induction
Experimental: The activity of a lycopene-rich tomato extract (LycOMato® marketed by Metaphar) was studied on HeLa cells transfected with an expression vector encoding a portion of the promoter of collagenase cloned upstream of the gene for chloramphenicol acetyltransferase (CAT).
The study made it possible to evaluate the effectiveness of a product in inhibiting the induction of the transcription of the gene for collagenase by phorbol 12-myristate 13-acetate (PMA).
The test was carried out on HeLa cells (ATCC CCL2), into which had been introduced the promoter of the gene for collagenase 1 (3.8 kB) cloned upstream of the gene for chloramphenicol acetyltransferase (CAT).
The cells were exposed to PMA at a concentration of 10 nM for 24 hours.
Before administration of PMA, the cells were contacted for 2 hours with lycopene (LycOMato® marketed by Metaphar) at concentrations varying from 10^−7% to 10^−4%, representing lycopene concentrations ranging from 6×10^−9% to 6×10^−6%.
Assaying of the CAT was carried out using a “CAT-Elisa” kit marketed by Boehringer, according to the supplier's instructions.
A “base level” for the expression of the CAT was measured in cells which had neither received PMA nor were treated with the test product.
The results of the test, reported in the following Table, are expressed with respect to the base level (100%) as percentage of inhibition of the expression of the CAT gene.

## CC(C)=CCC/C(C)=C/C=C/C(C)=C/C=C/C(C)=C/C=C/C=C(C)/C=C/C=C(C)/C=C/C=C(\C)CCC=C(C)C [lycopene]
  effect on the synthesis of collagenase 1 by inhibition of the activity of its promoter: inhibitory effect
